Experimental data: paper PMC7932537, “Quantitative profiling of protease specificity” (PLoS Computational Biology, 2021)

System: MMP-2
Assay: Substrate phage display with NGS: relative probability (RP) of P3-P1' tetramer clusters
Type: biochemical, human
Conditions: MMP2 - no binning; average relative probability (RP) of the P3-P1' tetramer; redundant tetramers have been averaged out

Substance | avg_RP
LWRI | 0
MALL | 16.9256
MFSL | 0.2905
MHEL | 0.0484
MLGL | 16.6463
MQNL | 23.8708
MQRL | 9.3428
NARL | 12.6743
NLAL | 5.8865
NLPL | 4.8994
PAHL | 34.5554
PASM | 32.7286
PAWL | 34.876
PAYL | 33.0829
PDQL | 0.2814
PERL | 16.3826
PFMI | 4.6361
PGSM | 25.6264

Substance | avg_RP
PHCL | 0.499
PLDM | 20.8822
PLNL | 34.7054
PLPW | 30.0861
PLRI | 15.7039
PLSI | 32.2576
PLSW | 31.2944
PMGM | 28.512
PMNL | 32.5586
PMSL | 32.4868
PNRL | 14.3701
PQAV | 23.1021
PQHL | 31.2196
PRWI | 30.8879
PSLI | 16.6444
PSRI | 23.675
PVNM | 30.0312
PWGL | 31.3204

Same assay, conditions: MMP2 - no binning; average relative probability of the P3-P1' tetramer; redundant tetramers have been averaged out

Substance | avg_RP
LMRL | 0.1149
LNSL | 18.3633
LNYL | 12.3459
LQKL | 13.1993
LQNL | 27.5155
LRHL | 22.7972
LRNI | 19.0698
LRQM | 8.6765
LRWW | 6.3129
LSHL | 29.8814
LSNL | 32.5007
LSRL | 14.3329
LTHL | 4.2994
LWKL | 0
LWSL | 8.3838
LWTL | 0.0853
LWYL | 0.6796
LYGL | 17.2472
LYHL | 4.5289
MASL [P3-P1' tetramer cluster] | 31.6834
MDLL | 0.2864
MFHL | 0.052
MLAL | 5.6722
MLHM | 4.7134
MLSL | 2.2282
MLSM | 5.2342
MMQL | 0.816

Substance | avg_RP
MMSL | 6.1978
MRHL | 14.413
MSSL | 27.4466
MWHL | 0.2013
PAGL [P3-P1' tetramer cluster] | 36.0156
PASL [P3-P1' tetramer cluster] | 36.4285
PAWM | 34.3571
PDFL | 1.02
PEML | 16.0599
PEWM | 12.3271
PFFL | 12.8224
PFFM | 3.5092
PFHL | 23.4724
PFRL | 16.3818
PFYL | 17.7778
PFYM | 8.1842
PGWL | 33.1284
PHLL | 16.4802
PHMM | 14.968
PHSM | 24.6739
PHWL | 28.844
PIML | 15.4441
PIPL | 33.1236
PKQL | 26.0949
PLAL | 34.4921
PLAS | 26.7589
PLHL | 34.1843

Substance | avg_RP
PLMM | 20.5706
PLNW | 28.8158
PLPQ | 24.381
PLSQ | 26.5842
PLTI | 16.7446
PMLL | 14.7282
PMQL | 27.6586
PMRL | 20.4124
PNWL | 26.5667
PNYI | 6.6891
PQSL | 33.5105
PQSW | 25.7009
PRAW | 34.1791
PRWM | 32.3694
PRYW | 20.9965
PSFL | 29.537
PSGM | 32.7604
PSML | 33.0235
PSNM | 32.3748
PSSL | 35.4913
PSWL | 35.705
PTSL | 28.926
PVGL | 35.2016
PVQL | 26.094
PWFL | 12.628
PWLQ | 0.2574

Same assay, conditions: MMP2 - no binning; average relative probability of the tetramer; redundant tetramers averaged out

Substance | avg_RP
LMGL | 28.5499
LNST | 0.4784
LRAM | 29.407
LRML | 9.0498
LRNL | 27.1336
LSSL | 24.2822
MAAL | 32.6562
MAHL [P3-P1' tetramer cluster] | 29.5006
MAWL | 31.5866
MESL | 8.7752
MGHL | 26.7019
MGRL | 18.6873
MLHL | 8.4169
MNSL | 18.7113
MSHL | 24.6165
MSYL | 18.2293
PAAL [P3-P1' tetramer cluster] | 35.8015
PAPM | 30.2085
PAPW | 31.7353
PAQM | 28.6142
PEFL | 12.0159
PEPL | 26.8179
PESL | 26.0767
PEWY | 14.0361

Substance | avg_RP
PFKY | 2.0624
PFLL | 9.0855
PFML | 19.624
PFSN | 0.4602
PGKM | 18.9001
PGLL | 24.9611
PGRL | 29.6024
PHGF | 21.975
PHHL | 27.4742
PHYL | 24.5149
PIEL | 20.545
PIGI | 31.281
PIHM | 18.8886
PKGM | 31.666
PKLI | 0.9254
PKLL | 15.3454
PKNQ | 13.2723
PKWI | 22.5059
PKWL | 29.287
PLAF | 31.4142
PLGI | 33.936
PLGL | 35.3536
PLGM | 34.1118
PLHM | 30.0095

Substance | avg_RP
PLKI | 14.0985
PLKV | 0.2165
PLLL | 15.2696
PLML | 25.0435
PLMY | 17.2027
PLNS | 18.9358
PLQI | 21.9897
PLSY | 31.2477
PLVY | 0.5489
PMDY | 10.9087
PMFL | 18.5721
PMGL | 34.7865
PMHL | 30.095
PMNV | 12.9651
PMWS | 5.1021
PNAF | 16.8865
PNFL | 15.743
PNPL | 23.6266
PNYL | 17.2533
PQGM | 29.6059
PQMI | 16.6558
PQRM | 19.3209
PQWI | 28.1021
PQWM | 29.0885

Substance | avg_RP
PRFI | 22.3274
PRGM | 34.3819
PRGN | 16.6168
PRGS | 16.3331
PRLY | 15.7594
PRNI | 31.9621
PRNT | 2.5391
PRNV | 26.6015
PRPV | 29.4989
PRQV | 4.0665
PRSH | 18.6153
PRSM | 32.6673
PRSW | 32.796
PRSY | 30.3745
PRVL | 13.9079
PRWL | 34.1809
PRYM | 28.0367
PSAL [P3-P1' tetramer cluster] | 36.1873
PSAM | 32.7825
PSAQ | 28.0379
PSGF | 31.2448
PSGW | 32.6048
PSLY | 18.1013
PSRM | 27.1397

Substance | avg_RP
PSTL | 30.1803
PSWS | 13.1501
PSWV | 21.5104
PTAL | 32.8941
PVAM | 31.7171
PVFL | 21.7568
PVHL | 32.2352
PVHM | 25.8779
PVHY | 23.3589
PVNL | 34.508
PVPM | 31.3308
PVWM | 25.8126
PWAL | 31.9211
PWAW | 10.3227
PWFM | 3.6842
PWGM | 25.1614
PWHI | 10.946
PWKL | 9.9628
PWNY | 16.9576
PWSL | 28.5684
PWSV | 0.3793
PYAM | 28.0901

Same assay, conditions: tetramer clusters unique to the MMP-2 selectome, MMP-2 RP

Substance | relative_probability
MAHL [P3-P1' tetramer cluster] | 29.50
MANL [P3-P1' tetramer cluster] | 32.42
MASL [P3-P1' tetramer cluster] | 31.68
MGAL [P3-P1' tetramer cluster] | 31.51
MGNL [P3-P1' tetramer cluster] | 31.00
MGWI [P3-P1' tetramer cluster] | 29.72
MNWL [P3-P1' tetramer cluster] | 30.10
MSNL [P3-P1' tetramer cluster] | 30.28
MSWM [P3-P1' tetramer cluster] | 29.68

Same assay, conditions: tetramer probability in MMP2 set / naive library; 200 nM protease, 2 h, 37°C

Substance | relative probability (RP)
PAAL [P3-P1' tetramer cluster] | 35.8015
PAGL [P3-P1' tetramer cluster] | 36.0156
PASL [P3-P1' tetramer cluster] | 36.4285
PSAL [P3-P1' tetramer cluster] | 36.1873
PSNL [P3-P1' tetramer cluster] | 36.5166

Same assay, conditions: tetramer projected onto MMP-2 cleavage sites determined by Prudova et al. (2010)

Substance | relative probability (RP)
PAAL [P3-P1' tetramer cluster] | 35.8
PASL [P3-P1' tetramer cluster] | 36.43
PRNL [P3-P1' tetramer cluster] | 35.13
PSAL [P3-P1' tetramer cluster] | 36.19
